Measured values as given in ChEMBL document CHEMBL2331425, “Triazolo and imidazo dihydropyrazolopyrimidine potassium channel antagonists” (Bioorg Med Chem Lett, 2013).

Biological target: Potassium voltage-gated channel subfamily A member 5 (Homo sapiens, UniProt P22460)
Experiment: Antagonist activity at human Kv1.5 expressed in mouse L929 cells assessed as inhibition of delayed rectifier repolarization current by patch clamp assay
Format: cell-based
Details: not given

Sequence of Potassium voltage-gated channel subfamily A member 5 (P22460 whole entry): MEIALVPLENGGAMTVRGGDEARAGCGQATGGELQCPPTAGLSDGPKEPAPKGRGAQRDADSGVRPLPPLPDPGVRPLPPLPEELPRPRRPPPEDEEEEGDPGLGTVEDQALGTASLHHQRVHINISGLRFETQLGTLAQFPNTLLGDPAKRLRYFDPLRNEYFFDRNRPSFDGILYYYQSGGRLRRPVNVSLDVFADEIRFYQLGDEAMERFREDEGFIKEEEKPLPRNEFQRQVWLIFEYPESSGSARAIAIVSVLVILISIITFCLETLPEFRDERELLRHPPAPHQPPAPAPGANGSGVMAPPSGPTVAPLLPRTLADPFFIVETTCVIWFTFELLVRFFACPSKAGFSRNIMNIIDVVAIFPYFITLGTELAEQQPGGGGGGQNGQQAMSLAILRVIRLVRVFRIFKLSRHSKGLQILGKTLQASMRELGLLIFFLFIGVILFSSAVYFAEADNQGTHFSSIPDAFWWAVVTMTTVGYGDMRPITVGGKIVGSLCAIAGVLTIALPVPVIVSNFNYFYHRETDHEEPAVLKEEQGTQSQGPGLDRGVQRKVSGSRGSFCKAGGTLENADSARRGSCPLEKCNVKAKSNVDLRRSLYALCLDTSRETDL

SMILES	IC50 [nM]
CCOc1cccc(-n2ncnc2C2=C(C)Nc3cc(C(F)(F)F)nn3[C@@H]2c2ccc(Cl)c(Cl)c2)n1	223
CC1=C(c2ncnn2CC(F)(F)F)[C@@H](c2ccc(Cl)c(Cl)c2)n2nccc2N1	200
CC1=C(c2ncnn2-c2ccc(C)cn2)[C@@H](c2ccc(Cl)c(Cl)c2)n2nc(C(F)(F)F)cc2N1	389
CC1=C(c2ncnn2-c2cccc(Cl)n2)[C@@H](c2ccc(Cl)c(Cl)c2)n2nc(C(F)(F)F)cc2N1	190
CC1=C(c2ncnn2C2CCC2)[C@@H](c2ccc(Cl)c(Cl)c2)n2nc(C(F)(F)F)cc2N1	165
CCn1ncnc1C1=C(C)Nc2ccnn2[C@@H]1c1ccc(Cl)c(Cl)c1	191
COc1ccccc1-n1ncnc1C1=C(C)Nc2ccnn2[C@@H]1c1ccc(Cl)c(Cl)c1	116
CC1=C(c2ncnn2-c2cc(C)ccn2)[C@@H](c2ccc(Cl)c(Cl)c2)n2nc(C(F)(F)F)cc2N1	410
CCn1ccnc1C1=C(C)Nc2cc(C(F)(F)F)nn2[C@@H]1c1ccc(Cl)c(Cl)c1	128
CC1=C(c2ncnn2C2CCCC2)[C@@H](c2ccc(Cl)c(Cl)c2)n2nccc2N1	37
CCOCCn1ccnc1C1=C(C)Nc2cc(C(F)(F)F)nn2[C@@H]1c1ccc(Cl)c(Cl)c1	98
CC1=C(c2ncnn2Cc2ccccc2)[C@@H](c2ccc(Cl)c(Cl)c2)n2nccc2N1	135

Tested on: not listed separately
Experiment: Clearance in Sprague-Dawley rat at 1 mg/kg, iv
Format: ADME, organism-based
Set-up: dose 1 mg/kg, route intravenous
Details: in vivo

SMILES	clearance [mL/min/kg]
CCOCCn1ccnc1C1=C(C)Nc2cc(C(F)(F)F)nn2[C@@H]1c1ccc(Cl)c(Cl)c1	45

Tested on: not listed separately
Experiment: Half life in Sprague-Dawley rat at 1 mg/kg, iv
Format: ADME, organism-based
Set-up: dose 1 mg/kg, route intravenous
Details: in vivo

SMILES	half-life [min]
CCOCCn1ccnc1C1=C(C)Nc2cc(C(F)(F)F)nn2[C@@H]1c1ccc(Cl)c(Cl)c1	36

Biological target: Voltage-gated inwardly rectifying potassium channel KCNH2 (Homo sapiens, UniProt Q12809)
Experiment: Inhibition of human ERG current in HEK293 cells by patch clamp method
Format: cell-based
Details: not given

Sequence of Voltage-gated inwardly rectifying potassium channel KCNH2 (Q12809 whole entry): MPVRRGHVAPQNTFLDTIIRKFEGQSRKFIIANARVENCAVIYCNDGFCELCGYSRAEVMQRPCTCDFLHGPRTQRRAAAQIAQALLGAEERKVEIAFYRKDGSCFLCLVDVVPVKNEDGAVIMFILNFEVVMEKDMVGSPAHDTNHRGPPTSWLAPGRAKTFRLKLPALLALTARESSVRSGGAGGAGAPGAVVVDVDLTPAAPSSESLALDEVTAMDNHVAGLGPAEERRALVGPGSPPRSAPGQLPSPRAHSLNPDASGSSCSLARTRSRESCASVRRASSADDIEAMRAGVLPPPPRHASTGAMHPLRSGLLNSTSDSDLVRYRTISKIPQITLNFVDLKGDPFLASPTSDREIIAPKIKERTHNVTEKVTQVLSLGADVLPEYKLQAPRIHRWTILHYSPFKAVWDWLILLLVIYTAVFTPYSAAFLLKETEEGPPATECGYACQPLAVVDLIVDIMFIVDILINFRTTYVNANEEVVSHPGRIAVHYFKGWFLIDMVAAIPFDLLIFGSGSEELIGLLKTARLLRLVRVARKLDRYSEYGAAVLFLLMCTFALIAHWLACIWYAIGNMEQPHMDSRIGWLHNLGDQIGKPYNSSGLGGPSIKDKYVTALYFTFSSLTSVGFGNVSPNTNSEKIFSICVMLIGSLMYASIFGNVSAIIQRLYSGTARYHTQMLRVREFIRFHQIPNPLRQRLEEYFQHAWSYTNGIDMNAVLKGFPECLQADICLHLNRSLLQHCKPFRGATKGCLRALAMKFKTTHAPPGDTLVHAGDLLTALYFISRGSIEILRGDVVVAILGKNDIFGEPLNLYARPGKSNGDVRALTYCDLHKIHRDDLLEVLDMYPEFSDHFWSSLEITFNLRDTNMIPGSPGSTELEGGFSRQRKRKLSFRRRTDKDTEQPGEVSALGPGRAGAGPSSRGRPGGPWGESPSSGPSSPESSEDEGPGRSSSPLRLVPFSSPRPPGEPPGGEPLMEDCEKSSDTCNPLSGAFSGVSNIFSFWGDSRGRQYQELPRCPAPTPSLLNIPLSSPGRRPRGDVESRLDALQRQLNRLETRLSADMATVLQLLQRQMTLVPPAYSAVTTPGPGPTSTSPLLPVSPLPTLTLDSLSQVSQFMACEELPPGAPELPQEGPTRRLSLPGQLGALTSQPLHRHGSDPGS

SMILES	INH [µM]
CC1=C(c2ncnn2C2CCCC2)[C@@H](c2ccc(Cl)c(Cl)c2)n2nccc2N1	6

Biological target: T1, Nuclear receptor subfamily 1 group I member 2 (Homo sapiens, UniProt O75469)
T1 sequence (O75469 whole entry): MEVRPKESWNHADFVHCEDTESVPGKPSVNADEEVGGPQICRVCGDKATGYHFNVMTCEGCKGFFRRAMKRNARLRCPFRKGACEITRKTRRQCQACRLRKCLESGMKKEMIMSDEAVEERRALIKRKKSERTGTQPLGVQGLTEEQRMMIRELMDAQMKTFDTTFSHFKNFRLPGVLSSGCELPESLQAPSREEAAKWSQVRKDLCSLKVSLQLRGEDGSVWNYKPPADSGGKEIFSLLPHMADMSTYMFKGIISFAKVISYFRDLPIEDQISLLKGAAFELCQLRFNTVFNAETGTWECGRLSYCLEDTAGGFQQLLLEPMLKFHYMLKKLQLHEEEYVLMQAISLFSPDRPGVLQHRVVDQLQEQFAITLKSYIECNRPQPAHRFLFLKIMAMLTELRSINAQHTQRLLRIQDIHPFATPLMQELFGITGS
Experiment: Transactivation of PXR (unknown origin)
Details: not given

SMILES	EC20 [nM]
CCOc1cccc(-n2ncnc2C2=C(C)Nc3cc(C(F)(F)F)nn3[C@@H]2c2ccc(Cl)c(Cl)c2)n1	1100
CC1=C(c2ncnn2-c2cc(C)ccn2)[C@@H](c2ccc(Cl)c(Cl)c2)n2nc(C(F)(F)F)cc2N1	440
CCn1ccnc1C1=C(C)Nc2cc(C(F)(F)F)nn2[C@@H]1c1ccc(Cl)c(Cl)c1	110
CCOCCn1ccnc1C1=C(C)Nc2cc(C(F)(F)F)nn2[C@@H]1c1ccc(Cl)c(Cl)c1	640
